Laboratory results reported in the kinase profiling compilation of Christmann-Franck et al. (2016).
Values joined by “and” are separate entries in the source; they are usually repeats but may differ in a detail not shown here. Identical values can stand only once.

What was measured:
Conditions in all cases: compound 10.0 µM
[1] = molecular target: PRKACA (human) (UniProt P17612)
[2] = molecular target: PAK7 (human) (UniProt Q9P286)
[3] = molecular target: WNK2 (human) (UniProt Q9Y3S1)
[4] = molecular target: SRPK2 (human) (UniProt P78362)
[5] = molecular target: MATK (human) (UniProt P42679)
[6] = molecular target: SYK (human) (UniProt P43405)
[7] = molecular target: MAP3K9 (human) (UniProt P80192)
[8] = molecular target: MAPKAPK3 (human) (UniProt Q16644)
[9] = molecular target: EPHA7 (human) (UniProt Q15375)
[10] = molecular target: PRKG1 (human) (UniProt Q13976)
[11] = molecular target: FYN (human) (UniProt P06241)
[12] = molecular target: CDK1 CCNB1 (human) (UniProt P06493+P14635)
[13] = molecular target: MAPKAPK5 (human) (UniProt Q8IW41)
[14] = molecular target: CSNK1E (human) (UniProt P49674)
[15] = molecular target: FGFR3 (human) (UniProt P22607)
[16] = molecular target: PRKCQ (human) (UniProt Q04759)
[17] = molecular target: ULK1 (human) (UniProt O75385)
[18] = molecular target: CSF1R (human) (UniProt P07333)
[19] = molecular target: BTK (human) (UniProt Q06187)
[20] = molecular target: LRRK2 (human) (UniProt Q5S007)
[21] = molecular target: GRK7 (human) (UniProt Q8WTQ7)
[22] = molecular target: GRK4 (human) (UniProt P32298)
[23] = molecular target: PAK4 (human) (UniProt O96013)
[24] = molecular target: NUAK2 (human) (UniProt Q9H093)
[25] = molecular target: GSK3B (human) (UniProt P49841)
[26] = molecular target: MET (human) (UniProt P08581)
[27] = molecular target: CSNK1G2 (human) (UniProt P78368)
[28] = molecular target: NEK6 (human) (UniProt Q9HC98)
[29] = molecular target: RPS6KA2 KD1 KD2 (human) (UniProt Q15349)
[30] = molecular target: WNK3 (human) (UniProt Q9BYP7)
[31] = molecular target: MAPK8 (human) (UniProt P45983)
[32] = molecular target: NEK9 (human) (UniProt Q8TD19)
[33] = molecular target: PLK2 (human) (UniProt Q9NYY3)
[34] = molecular target: ACVRL1 (human) (UniProt P37023)

Chain of PRKG1 (human) (Q13976 whole entry, looked up): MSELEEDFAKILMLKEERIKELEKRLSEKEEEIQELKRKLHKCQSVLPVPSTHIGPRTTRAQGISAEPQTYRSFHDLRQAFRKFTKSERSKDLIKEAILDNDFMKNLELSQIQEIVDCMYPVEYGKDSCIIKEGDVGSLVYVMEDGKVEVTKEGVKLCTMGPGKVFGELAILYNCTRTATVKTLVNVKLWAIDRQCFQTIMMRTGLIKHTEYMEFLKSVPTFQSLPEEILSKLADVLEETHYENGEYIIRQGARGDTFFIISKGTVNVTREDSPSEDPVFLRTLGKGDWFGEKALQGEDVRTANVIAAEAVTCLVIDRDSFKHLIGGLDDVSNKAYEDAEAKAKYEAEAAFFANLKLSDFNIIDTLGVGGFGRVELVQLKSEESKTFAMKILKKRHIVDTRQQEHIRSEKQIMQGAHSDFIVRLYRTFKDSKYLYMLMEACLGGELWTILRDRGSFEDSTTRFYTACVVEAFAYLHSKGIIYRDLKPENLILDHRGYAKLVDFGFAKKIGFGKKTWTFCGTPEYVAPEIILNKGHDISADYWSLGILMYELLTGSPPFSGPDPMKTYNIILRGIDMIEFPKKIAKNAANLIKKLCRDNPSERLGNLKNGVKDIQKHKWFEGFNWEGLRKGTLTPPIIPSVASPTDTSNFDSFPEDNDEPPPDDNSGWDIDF
Chain of PAK7 (human) (Q9P286 whole entry, looked up): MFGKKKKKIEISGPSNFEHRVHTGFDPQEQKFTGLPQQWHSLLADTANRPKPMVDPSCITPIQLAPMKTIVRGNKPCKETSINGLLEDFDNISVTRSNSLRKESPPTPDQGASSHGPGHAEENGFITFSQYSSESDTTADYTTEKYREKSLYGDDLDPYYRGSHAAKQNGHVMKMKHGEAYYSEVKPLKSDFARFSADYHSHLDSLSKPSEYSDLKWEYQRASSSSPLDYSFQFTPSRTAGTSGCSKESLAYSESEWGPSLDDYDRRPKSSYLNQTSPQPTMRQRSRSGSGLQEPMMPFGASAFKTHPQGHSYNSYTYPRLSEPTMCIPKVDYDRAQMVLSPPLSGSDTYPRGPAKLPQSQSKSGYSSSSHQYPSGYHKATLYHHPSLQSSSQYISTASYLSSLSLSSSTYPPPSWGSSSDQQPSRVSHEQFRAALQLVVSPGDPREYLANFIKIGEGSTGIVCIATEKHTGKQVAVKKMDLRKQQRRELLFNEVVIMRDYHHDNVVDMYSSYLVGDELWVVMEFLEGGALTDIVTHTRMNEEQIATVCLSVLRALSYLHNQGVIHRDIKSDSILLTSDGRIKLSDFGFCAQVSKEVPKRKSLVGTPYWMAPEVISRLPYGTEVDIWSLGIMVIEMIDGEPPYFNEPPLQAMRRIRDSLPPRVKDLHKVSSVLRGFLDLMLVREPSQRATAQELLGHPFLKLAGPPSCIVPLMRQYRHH
Chain of EPHA7 (human) (Q15375 whole entry, looked up): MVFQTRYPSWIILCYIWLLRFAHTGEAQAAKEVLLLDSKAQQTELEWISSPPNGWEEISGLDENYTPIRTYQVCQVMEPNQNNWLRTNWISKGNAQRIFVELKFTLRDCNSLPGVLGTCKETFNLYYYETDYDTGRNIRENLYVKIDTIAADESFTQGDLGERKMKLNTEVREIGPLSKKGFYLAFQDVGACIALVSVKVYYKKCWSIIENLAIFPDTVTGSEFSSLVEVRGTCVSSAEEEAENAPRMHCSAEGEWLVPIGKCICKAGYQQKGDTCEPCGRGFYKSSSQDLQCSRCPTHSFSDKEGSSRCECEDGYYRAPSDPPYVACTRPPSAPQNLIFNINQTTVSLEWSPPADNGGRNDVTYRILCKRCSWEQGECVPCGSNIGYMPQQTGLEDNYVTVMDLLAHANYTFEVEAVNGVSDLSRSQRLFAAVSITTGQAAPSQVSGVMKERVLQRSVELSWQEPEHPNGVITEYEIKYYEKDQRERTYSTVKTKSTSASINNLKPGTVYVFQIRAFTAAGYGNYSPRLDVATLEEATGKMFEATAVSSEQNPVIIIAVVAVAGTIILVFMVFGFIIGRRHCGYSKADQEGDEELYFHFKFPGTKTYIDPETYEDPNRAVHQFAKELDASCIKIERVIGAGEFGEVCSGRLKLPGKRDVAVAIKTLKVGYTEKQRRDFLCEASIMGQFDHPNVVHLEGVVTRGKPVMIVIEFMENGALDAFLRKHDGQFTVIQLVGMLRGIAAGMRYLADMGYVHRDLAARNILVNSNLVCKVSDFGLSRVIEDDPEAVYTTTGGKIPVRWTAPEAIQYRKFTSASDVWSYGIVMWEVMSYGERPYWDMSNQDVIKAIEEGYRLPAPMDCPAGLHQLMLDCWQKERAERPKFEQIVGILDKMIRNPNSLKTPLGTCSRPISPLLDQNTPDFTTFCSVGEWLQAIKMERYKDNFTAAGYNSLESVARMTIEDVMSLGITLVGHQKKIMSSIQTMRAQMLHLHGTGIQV
Chain of GRK4 (human) (P32298 whole entry, looked up): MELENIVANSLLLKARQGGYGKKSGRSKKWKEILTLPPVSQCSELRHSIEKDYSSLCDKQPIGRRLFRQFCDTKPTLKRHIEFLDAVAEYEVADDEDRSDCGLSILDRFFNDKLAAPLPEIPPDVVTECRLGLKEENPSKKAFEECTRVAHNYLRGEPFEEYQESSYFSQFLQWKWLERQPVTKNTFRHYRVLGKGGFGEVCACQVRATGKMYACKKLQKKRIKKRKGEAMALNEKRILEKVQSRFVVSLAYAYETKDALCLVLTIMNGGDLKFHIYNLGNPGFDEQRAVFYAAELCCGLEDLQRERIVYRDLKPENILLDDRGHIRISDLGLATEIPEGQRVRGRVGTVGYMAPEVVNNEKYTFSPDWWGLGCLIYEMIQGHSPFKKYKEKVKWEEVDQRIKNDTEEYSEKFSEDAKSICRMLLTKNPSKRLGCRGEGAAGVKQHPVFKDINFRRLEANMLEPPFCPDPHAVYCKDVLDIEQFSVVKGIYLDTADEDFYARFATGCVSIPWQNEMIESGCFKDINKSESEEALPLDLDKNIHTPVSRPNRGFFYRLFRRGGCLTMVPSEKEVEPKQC
Chain of CSF1R (human) (P07333 whole entry, looked up): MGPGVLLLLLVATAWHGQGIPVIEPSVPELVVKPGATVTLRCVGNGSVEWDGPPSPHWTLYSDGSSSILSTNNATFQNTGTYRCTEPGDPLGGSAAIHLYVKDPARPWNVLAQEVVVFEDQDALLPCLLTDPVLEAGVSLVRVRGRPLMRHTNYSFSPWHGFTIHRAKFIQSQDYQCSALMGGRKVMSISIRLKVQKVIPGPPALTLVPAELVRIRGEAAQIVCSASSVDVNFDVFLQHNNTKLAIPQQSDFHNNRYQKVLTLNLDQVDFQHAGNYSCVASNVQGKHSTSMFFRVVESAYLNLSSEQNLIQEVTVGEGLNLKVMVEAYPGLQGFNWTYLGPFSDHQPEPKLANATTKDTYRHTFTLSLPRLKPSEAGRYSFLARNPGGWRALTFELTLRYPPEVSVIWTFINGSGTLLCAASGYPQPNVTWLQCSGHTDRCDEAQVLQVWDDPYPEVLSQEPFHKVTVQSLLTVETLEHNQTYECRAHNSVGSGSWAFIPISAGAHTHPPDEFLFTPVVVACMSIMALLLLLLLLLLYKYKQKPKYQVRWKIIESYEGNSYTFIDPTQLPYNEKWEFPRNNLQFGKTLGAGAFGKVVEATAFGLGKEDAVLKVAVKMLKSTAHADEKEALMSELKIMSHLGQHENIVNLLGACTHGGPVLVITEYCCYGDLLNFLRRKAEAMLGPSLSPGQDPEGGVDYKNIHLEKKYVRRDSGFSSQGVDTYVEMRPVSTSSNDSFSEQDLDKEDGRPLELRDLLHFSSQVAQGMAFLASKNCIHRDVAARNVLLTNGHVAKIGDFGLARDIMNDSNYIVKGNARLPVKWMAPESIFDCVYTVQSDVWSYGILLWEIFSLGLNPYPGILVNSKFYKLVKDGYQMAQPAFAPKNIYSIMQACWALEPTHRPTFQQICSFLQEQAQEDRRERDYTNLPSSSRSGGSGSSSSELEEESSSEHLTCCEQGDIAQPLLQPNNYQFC
Chain of CDK1 CCNB1 (human) (P06493 whole entry, looked up): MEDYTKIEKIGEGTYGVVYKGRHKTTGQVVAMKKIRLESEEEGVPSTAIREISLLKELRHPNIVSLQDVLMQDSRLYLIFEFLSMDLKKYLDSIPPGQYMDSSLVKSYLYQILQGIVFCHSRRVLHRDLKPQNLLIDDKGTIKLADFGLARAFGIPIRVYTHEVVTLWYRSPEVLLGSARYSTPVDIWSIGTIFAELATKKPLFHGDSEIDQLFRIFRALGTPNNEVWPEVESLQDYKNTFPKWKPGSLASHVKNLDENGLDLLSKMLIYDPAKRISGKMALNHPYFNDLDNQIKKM
Chain of CDK1 CCNB1 (human) (P14635 whole entry, looked up): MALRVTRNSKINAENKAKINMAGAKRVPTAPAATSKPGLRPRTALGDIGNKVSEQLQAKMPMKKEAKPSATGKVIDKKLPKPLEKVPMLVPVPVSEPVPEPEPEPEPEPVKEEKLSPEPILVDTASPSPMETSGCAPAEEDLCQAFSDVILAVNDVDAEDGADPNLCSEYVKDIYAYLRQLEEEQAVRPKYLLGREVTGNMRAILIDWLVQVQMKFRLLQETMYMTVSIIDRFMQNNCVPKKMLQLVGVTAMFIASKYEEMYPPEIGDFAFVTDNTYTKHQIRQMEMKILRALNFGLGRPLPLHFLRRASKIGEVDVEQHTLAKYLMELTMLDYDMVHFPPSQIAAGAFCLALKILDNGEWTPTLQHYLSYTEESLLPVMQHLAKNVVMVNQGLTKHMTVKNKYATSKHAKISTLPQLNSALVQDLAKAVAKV
Chain of MAPKAPK3 (human) (Q16644 whole entry, looked up): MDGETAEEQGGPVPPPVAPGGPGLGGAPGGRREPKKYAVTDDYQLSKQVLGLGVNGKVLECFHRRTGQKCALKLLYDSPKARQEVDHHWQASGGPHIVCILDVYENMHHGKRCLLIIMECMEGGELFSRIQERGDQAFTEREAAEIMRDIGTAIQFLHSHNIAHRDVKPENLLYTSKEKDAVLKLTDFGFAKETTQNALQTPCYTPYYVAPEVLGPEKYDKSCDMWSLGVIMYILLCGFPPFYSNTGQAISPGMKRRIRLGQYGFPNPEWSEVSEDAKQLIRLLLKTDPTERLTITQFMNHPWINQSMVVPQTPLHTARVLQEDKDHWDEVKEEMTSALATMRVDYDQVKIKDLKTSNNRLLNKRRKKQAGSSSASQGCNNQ

CC[C@H](C)n1cc(C)c2c(C(=O)NCc3c(C)cc(C)[nH]c3=O)cc(-c3ccc(N4CCNCC4)nc3)cc21
residual activity [1]: 102%
residual activity [2]: 102%
residual activity [3]: 93%
residual activity [4]: 98.5%
residual activity [5]: 95.5%
residual activity [6]: 89%
residual activity [7]: 92.5%
residual activity [8]: 100%
residual activity [9]: 91.5%
residual activity [10]: 95% and 90.5%
residual activity [11]: 100%
residual activity [12]: 99%
residual activity [13]: 86%
residual activity [14]: 94.5%
residual activity [15]: 80.5%
residual activity [16]: 99.5%
residual activity [17]: 98%
residual activity [18]: 95%
residual activity [19]: 103%
residual activity [20]: 99%
residual activity [21]: 97.5%
residual activity [22]: 98%
residual activity [23]: 97.5%
residual activity [24]: 103%
residual activity [25]: 96%
residual activity [26]: 128%
residual activity [27]: 90.5%
residual activity [28]: 95.5%
residual activity [29]: 92%
residual activity [30]: 95%
residual activity [31]: 99.5%
residual activity [32]: 102%
residual activity [33]: 93.5%
residual activity [34]: 98%
